Earlier results as cited in paper PMC12979414, “Ascending single-dose study of the safety, pharmacokinetics, and pharmacodynamics of CSTI-500, a novel monoamine triple reuptake inhibitor, first-in-human” (Psychopharmacology, 2025).
Read-outs that look alike come from different tables or passages of the source.

How the values were obtained:
[1] = set-up: method as in Zheng et al. [2015]; settings: multiple-ascending-dose study, healthy subjects; ref Zheng et al. [2015]
[2] = set-up: method as in Deest et al. [2021]; settings: PWS patients, 6 months, doses as low as 25 mg; ref Deest et al. [2021]
[3] = clinical trials for Parkinson's disease; ref Astrup et al. [2008]
[4] = PET occupancy study in healthy subjects, ref Learned et al. [2012]

Structure (SMILES): CN1Cc2cc(-c3ccc(N)nn3)ccc2[C@H](c2ccc3ccccc3c2)C1 [BMS-820836]
- SERT occupancy (SERT; 0.5 mg/d, near steady-state, healthy subjects, ref Zheng et al. [2015]): about 80%
- striatal DAT occupancies (DAT; 0.5-2 mg/d, healthy volunteers, ref Zheng et al. [2015]): 14-30%
- clinical efficacy (0.25-2 mg/d, treatment-resistant MDD, two phase IIb trials, ref Bhagwagar et al. [2015]): no clinical superiority compared to duloxetine or escitalopram treatment
- heart rate [1]: linear dose-related escalation in heart rate

Structure (SMILES): COC[C@@H]1[C@@H](c2ccc(Cl)c(Cl)c2)C[C@@H]2CC[C@H]1N2 [GSK372475]
- SERT occupancy (SERT; [4]): 55-75%
- DAT occupancy (DAT; [4]): 60-80%
- efficacy and tolerability (1-2 mg/d, two 10-week phase II trials in MDD patients, ref Learned et al. [2012]): neither efficacious nor well-tolerated

Structure (SMILES): N[C@@H]1CC[C@@H](c2ccc(Cl)c(Cl)c2)c2ccccc21 [SEP-225289]
- SERT occupancy (SERT; single-doses 8-16 mg, healthy volunteers, all doses, ref DeLorenzo et al. [2011]): below 20%
- DAT occupancies, average values (DAT; single-doses 8-16 mg, healthy volunteers, ref DeLorenzo et al. [2011]): 33-49%
- depression symptoms (phase II study in MDD patients, 8 weeks of treatment, ref Sharma et al. [2015]): no reduction of depression symptoms

Structure (SMILES): CN[C@H]1CC[C@@H](c2ccc(Cl)c(Cl)c2)c2ccccc21 [sertraline]
- temper outbursts [2]: significantly reduced the temper outbursts

Structure (SMILES): CCOC[C@@H]1[C@@H](c2ccc(Cl)c(Cl)c2)C[C@@H]2CC[C@H]1N2C [tesofensine]
- weight loss as an AE [3]: significant weight loss
